# Tests used:
# Format in all cases: cell-based
# [1] = tested on: neutrophils; test: ANCA stimulated neutrophil degranulation (MPO release, ELISA); settings: Homo sapiens, 0.5 h, TNFα primed, MPO release over 30 minute period (FIG. 10), read-out: IC50 of inhibition of ANCA stimulated neutrophil degranulation
# Protocol: FIG. 10 Inhibition of ANCA induced neutrophil degranulation by compound 10. Neutrophils were cultured at 2×10^6 cells/ml in RPMI1640 medium containing human serum antibiotics and 20 ng/ml TNFα for 10 minutes prior to addition of ANCA (1=MPO ANCA; 2=PR3 ANCA) and a range of concentrations of compound 10. Release of MPO was monitored after a 30 minute period by ELISA.
# ANCA are predominantly IgG autoantibodies directed against constituents of primary granules of neutrophils (PR3 and MPO). ANCA associated vasculitis is the most common primary systemic small-vessel vasculitis in adults. […] Neutrophils were cultured for 10 hours in RPMI1640 medium containing 2% human AB serum, 2 mM L-glutamine and antibiotics (100 U/ml penicillin, […] streptomycin) and their apoptosis determined by staining with Giemsa stain and observing an apoptotic morphology by light microscopy. […] The ability of compound 10 to inhibit ANCA-induced neutrophil inflammatory functions was also determined Neutrophils were cultured in RPMI1640 medium containing 2% human AB serum, 2 mM L-glutamine and antibiotics (100 U/ml penicillin, […] streptomycin). […] ANCA stimulated degranulation of neutrophils was assessed by release of myeloperoxidase in to the medium over a 30 minute period, with MPO measured by ELISA. […] HUVEC viability was determined by trypan blue staining and light microscopy.
# [2] = tested on: neutrophils; test: Neutrophil superoxide generation, lucigenin based assay; settings: Homo sapiens, primed neutrophils, compound 10 minutes prior to fMLP (FIG. 2)
# Protocol: Neutrophils were cultured at 2×10^6 cells/ml in RPMI1640 medium containing human serum antibiotics and 20 ng/ml TNFα for 10 minutes prior to addition of a range of concentrations of compound 10. Generation of superoxide was determined over a 10 minute period using a lucigenin based assay. The area under the curve was calculated to give superoxide generation over the whole assay period.
# Anti-inflammatory effects against neutrophils were determined by assessing effects of several of the compounds on neutrophil inflammatory activity (superoxide generation, secretion of chemoattractant IL8 and degranulation to release myeloperoxidase). Neutrophils were isolated from human blood to a purity of greater than 95% and were cultured in RPMI1640 medium containing 2% human AB serum, 2 mM L-glutamine and antibiotics (100 U/ml penicillin, […] streptomycin). Neutrophils were primed for 30 minutes with 50 ng/ml GM-CSF prior to treatment with the bacterial stimulant fMLP (100 ng/ml) and measurement of superoxide generation in a lucigenin based assay (see Pongracz J and Lord J M 1998, Biochem. Biophys. Res. Commun. 247, 624-629) and release of IL8 and myeloperoxidase using an ELISA method. The novel compounds were added to the culture at a range of concentrations (0.1-100 μM) 10 minutes prior to addition of fMLP. […]
# [3] = tested on: neutrophils; test: Neutrophil spreading in Fibronectin; settings: FIG. 8
smiles,measurement,setting,value
"COc1cccc(CNc2nc(Cl)nc3c2ncn3C2OC(CO)C(O)C2O)c1O (stereo not drawn) [Compound 10, 2-Chloro-6-(2-hydroxy-3-methoxybenzylamino)purine riboside]",IC50,[1],3 µM
same,IC50,[2],5 µM
same,neutrophil spreading in Fibronectin,[3],reduces neutrophil spreading

# Source: US20140066394A1, “Substituted 6-(Benzylamino) Purine Riboside Derivatives, Use Thereof and Compositions Containing These Derivatives” (Biopatterns, S.R.O, priority 2009, published 2014)
